Reference: US9133154B2, “Substituted 3-phenylpropylamine derivatives for the treatment of ophthalmic diseases and disorders” (Acucela Inc., priority 2013, dated 2015)

Tested on: isomerase (recovery of 11-cis-retinal after bleaching)
Assay: In vivo murine isomerase assay
Conditions: mice, oral gavage
Procedure: The capability of compounds described herein to inhibit isomerase was determined by an in vivo murine isomerase assay. […] The recovery of 11-cis-retinal after bleaching can be used to estimate the activity of isomerase in vivo. Delayed recovery, as represented by lower 11-cis-retinal oxime levels, indicates inhibition of isomerization reaction.
Mice were gavaged with the test compound. […] The mice were allowed to recover 2 hours in the dark. The animals were then sacrificed by carbon dioxide inhalation. Retinoids were extracted from the eye and the regeneration of 11-cis-retinal was assessed at various time intervals.
After the mice were sacrificed, the eyes were immediately removed and placed in liquid nitrogen for storage.
The eyes were placed in 500 μL of bis-tris propane buffer (10 mM, pH˜7.3) and 20 μL of 0.8M hydroxile amine (pH˜7.3). The eyes were cut up into small pieces with small iris scissors and then thoroughly homogenized at 30000 rpm with a mechanical homogenizer (Polytron PT 1300 D) in the tube until no visible tissue remained. 500 μL of methanol and 500 μL of heptane were added to each tube. The tubes were attached to a vortexer so that the contents were mixed thoroughly for 15 minutes in room temperature. The organic phase was separated from the aqueous phase by centrifugation for 10 min at 13K rpm, 4° C. 240 μL of the solution from the top layer (organic phase) was removed and transferred to clean 300 μl glass inserts in HPLC vials using glass pipette and the vials were crimped shut tightly.
The samples were analyzed on an Agilent 1100 HPLC system with normal phase column: SILICA (Beckman Coutlier, dp 5 μm, 4.6 mM×250 mM). […] Loading volume for each sample was 100 μA detection wavelength was 360 nm. The area under the curve for 11-cis retinal oxime was calculated by Agilent Chemstation software and was recorded manually. Data processing was performed using Prizm software.
Positive control mice (no compound administered) were sacrificed fully dark-adapted and the eye retinoids analyzed. Light (bleached) control mice (no compound administered) were sacrificed and retinoids isolated and analyzed immediately after light treatment.
A time course study was performed to determine the isomerase inhibitory activity of the test compound. […] The animals were then “photo-bleached” (5000 Lux white light for 10 minutes) at 2, 4, 8, 16 and 24 hours after dosing, and returned to darkness to allow recovery of the 11-cis-retinal content of the eyes. Mice were sacrificed 2 hours after bleaching, eyes were enucleated, and retinoid content is analyzed by HPLC.
Recovery control mice (vehicle-only treated) were light-treated and left to recover for 2 hours in the dark before sacrifice and analysis. Light control mice (vehicle only treated) were sacrificed for analysis immediately after photo-bleaching.
An in vivo dose response isomerase inhibition study was performed with test compound. […] Recovery and retinoid analysis were performed as described above. Dark control mice were vehicle-only treated, sacrificed fully dark adapted without light treatment, and analyzed. Recovery control mice and light control mice were included in the study as per the initial phase.

NCC[C@@H](O)c1cccc(OCC2CCOCC2)c1 [Example 1]
% Inhibition (dose 0.3 mg/kg, time 2 h): 40.2% | % Inhibition (dose 1 mg/kg, time 2 h): 96.7% | % Inhibition (dose 1 mg/kg, time 4 h): 92.8%
